From patent US10626144B2, “Peptide derivatives and uses thereof” (Nosopharm, priority 2014, dated 2020)
Where two headings read alike, the source gives them in different places. Numbered stars: 1 amine (or outer) side, 2 acyl side, 3 side chain; on linkers, the order of the positions; unused ones are H or OH. Square brackets hold non-standard residues; d marks the D form. Peptide text beside a SMILES is read from it. * marks the point of attachment. Dab(3S-OH) = NC[C@H](O)[C@H](N)C(=O)O; Gly(cPent) = N[C@H](C(=O)O)C1CCCC1; ΔZArg = N=C(N)NCC/C=C(\N)C(=O)O; AllylGly = C=CC[C@H](N)C(=O)O; NMeK = CN[C@@H](CCCCN)C(=O)O; X2 = CC=C(N[*:1])C(=O)[*:2]; dOrn = NCCC[C@@H](N)C(=O)O; hSer = N[C@@H](CCO)C(=O)O; Pra = C#CC[C@H](N)C(=O)O; Dab = NCC[C@H](N)C(=O)O; Dap = NC[C@H](N)C(=O)O; NH(CH2)4NH2 = NCCCCN*

Experiments:
[1] = tested on: Staphylococcus aureus ATCC 13709; assay: MIC, broth microdilution (CLSI), reference strain; settings: CAMHB
[2] = target: N-type calcium channels (Cav2.2) (Rattus norvegicus (Rat), UniProt Q02294); assay: biochemical; type: binding
[3] = tested on: Escherichia coli ATCC 25922; assay: MIC, broth microdilution (CLSI), reference strain; settings: CAMHB
[4] = tested on: Pseudomonas aeruginosa ATCC 27853; assay: MIC, broth microdilution (CLSI), reference strain; settings: CAMHB
[5] = tested on: Acinetobacter baumannii ATCC 19606; assay: MIC, broth microdilution (CLSI), reference strain; settings: CAMHB
[6] = class symbol, rat cerebral cortex, [125I]ω-conotoxin GVIA 0.001 nM, 30 minutes at room temperature, read-out: IC50 Cav2.2
[7] = value in brackets, rat cerebral cortex, [125I]ω-conotoxin GVIA 0.001 nM, read-out: IC50 Cav2.2

SMILES | Sa: MIC Staphylococcus aureus ATCC 13709 [1] | IC50 [2, 6] | Ec: MIC Escherichia coli ATCC 25922 [3] | Pa: MIC Pseudomonas aeruginosa ATCC 27853 [4] | Ab: MIC Acinetobacter baumannii ATCC 19606 [5] | IC50 [2] | IC50 [2, 7]
N=C(N)NCC/C=C(\NC(=O)[C@H](CCCCN)NC(=O)[C@H](Cc1cnc[nH]1)NC(=O)[C@@H]1CCCN1C(=O)[C@@H](CCCN)NC(=O)CNC(=O)[C@H](CCN)NC(=O)[C@@H](NC(=O)[C@@H](N)CCCCN)[C@@H](O)CN)C(=O)N[C@@H](CCCCN)C(=O)NCCCCN [21.1] (H-K[Dab(3S-OH)][Dab]G[dOrn]PHK[ΔZArg]K-{NH(CH2)4NH2}) | ++ (≤8 μg/mL) | < 30 nM | ++ (≤8 μg/mL) | ++ (≤8 μg/mL) | ++ (≤8 μg/mL) | – | –
CN[C@@H](CCCCN)C(=O)N[C@H](C(=O)N[C@H](C(=O)NCC(=O)N[C@H](CCCN)C(=O)N1CCC[C@H]1C(=O)N[C@@H](Cc1cnc[nH]1)C(=O)N[C@@H](CCCCN)C(=O)N/C(=C\CCNC(=N)N)C(=O)N[C@@H](CCCCN)C(=O)NCCCCN)[C@@H](O)CN)[C@@H](O)CN [22.3] (H-[NMeK][Dab(3S-OH)][Dab(3S-OH)]G[dOrn]PHK[ΔZArg]K-{NH(CH2)4NH2}) | ++ (≤8 μg/mL) | < 30 nM | ++ (≤8 μg/mL) | + (≤32 μg/mL) | + (≤32 μg/mL) | – | –
C[C@H](NC(=O)[C@@H]1CCCN1C(=O)[C@@H](CCCN)NC(=O)CNC(=O)[C@@H](NC(=O)[C@@H](NC(=O)[C@@H](N)CCCCN)[C@@H](O)CN)[C@@H](O)CN)C(=O)N[C@@H](CCCCN)C(=O)N/C(=C\CCNC(=N)N)C(=O)N[C@@H](CCCCN)C(=O)NCCCCN [22.4] (H-K[Dab(3S-OH)][Dab(3S-OH)]G[dOrn]PAK[ΔZArg]K-{NH(CH2)4NH2}) | ++ (≤8 μg/mL) | < 30 nM | ++ (≤8 μg/mL) | + (≤32 μg/mL) | − (>32 μg/mL) | – | –
N=C(N)NCCC[C@@H](NC(=O)[C@H](CCCCN)NC(=O)[C@H](Cc1cnc[nH]1)NC(=O)[C@@H]1CCCN1C(=O)[C@@H](CCCN)NC(=O)CNC(=O)[C@@H](NC(=O)[C@@H](NC(=O)[C@@H](N)CCCCN)[C@@H](O)CN)[C@@H](O)CN)C(=O)N[C@@H](CCCCN)C(=O)NCCCCN [22.5] (H-K[Dab(3S-OH)][Dab(3S-OH)]G[dOrn]PHK[dR]K-{NH(CH2)4NH2}) | ++ (≤8 μg/mL) | < 30 nM | + (≤32 μg/mL) | + (≤32 μg/mL) | − (>32 μg/mL) | – | –
CC=C(NC(=O)[C@H](CCCCN)NC(=O)[C@H](Cc1cnc[nH]1)NC(=O)[C@@H]1CCCN1C(=O)[C@@H](CCCN)NC(=O)CNC(=O)[C@@H](NC(=O)[C@@H](NC(=O)[C@@H](N)CCCCN)[C@@H](O)CN)[C@@H](O)CN)C(=O)N[C@@H](CCCCN)C(=O)NCCCCN [22.15] (H-K[Dab(3S-OH)][Dab(3S-OH)]G[dOrn]PHK[X2]K-{NH(CH2)4NH2}) | ++ (≤8 μg/mL) | – | + (≤32 μg/mL) | − (>32 μg/mL) | − (>32 μg/mL) | < 30 nM | 4 nM
C[C@H](N)C(=O)N[C@H](C(=O)N[C@H](C(=O)NCC(=O)N[C@H](CCCN)C(=O)N1CCC[C@H]1C(=O)N[C@@H](Cc1cnc[nH]1)C(=O)N[C@@H](CCCCN)C(=O)N/C(=C\CCNC(=N)N)C(=O)N[C@@H](CCCCN)C(=O)NCCCCN)[C@@H](O)CN)[C@@H](O)CN [22.16] (H-A[Dab(3S-OH)][Dab(3S-OH)]G[dOrn]PHK[ΔZArg]K-{NH(CH2)4NH2}) | ++ (≤8 μg/mL) | < 30 nM | + (≤32 μg/mL) | − (>32 μg/mL) | − (>32 μg/mL) | – | –
C[C@H](NC(=O)[C@H](CCCCN)NC(=O)[C@H](Cc1cnc[nH]1)NC(=O)[C@@H]1CCCN1C(=O)[C@@H](CCCN)NC(=O)CNC(=O)[C@@H](NC(=O)[C@@H](NC(=O)[C@@H](N)CCCCN)[C@@H](O)CN)[C@@H](O)CN)C(=O)N[C@@H](CCCCN)C(=O)NCCCCN [22.23] (H-K[Dab(3S-OH)][Dab(3S-OH)]G[dOrn]PHKAK-{NH(CH2)4NH2}) | ++ (≤8 μg/mL) | < 30 nM | − (>32 μg/mL) | − (>32 μg/mL) | − (>32 μg/mL) | – | –
C[C@H](NC(=O)[C@@H](NC(=O)[C@@H](NC(=O)[C@@H](N)CCCCN)[C@@H](O)CN)[C@@H](O)CN)C(=O)N[C@H](CCCN)C(=O)N1CCC[C@H]1C(=O)N[C@@H](Cc1cnc[nH]1)C(=O)N[C@@H](CCCCN)C(=O)N/C(=C\CCNC(=N)N)C(=O)N[C@@H](CCCCN)C(=O)NCCCCN [22.24] (H-K[Dab(3S-OH)][Dab(3S-OH)]A[dOrn]PHK[ΔZArg]K-{NH(CH2)4NH2}) | ++ (≤8 μg/mL) | < 30 nM | − (>32 μg/mL) | − (>32 μg/mL) | − (>32 μg/mL) | – | –
C=CC[C@H](NC(=O)[C@@H](NC(=O)[C@@H](N)CCCCN)[C@@H](O)CN)C(=O)NCC(=O)N[C@H](CCCN)C(=O)N1CCC[C@H]1C(=O)N[C@@H](Cc1cnc[nH]1)C(=O)N[C@@H](CCCCN)C(=O)N/C(=C\CCNC(=N)N)C(=O)O [216.1] (H-K[Dab(3S-OH)][AllylGly]G[dOrn]PHK[ΔZArg]-OH) | + (≤32 μg/mL) | – | − (>32 μg/mL) | − (>32 μg/mL) | − (>32 μg/mL) | – | –
N=C(N)NCC/C=C(\NC(=O)[C@H](CCCCN)NC(=O)[C@H](Cc1cnc[nH]1)NC(=O)[C@@H]1CCCN1C(=O)[C@@H](CCCN)NC(=O)CNC(=O)[C@H](CCCNC(=N)N)NC(=O)[C@@H](NC(=O)[C@@H](N)CCCCN)[C@@H](O)CN)C(N)=O [217.1] (H-K[Dab(3S-OH)]RG[dOrn]PHK[ΔZArg]-NH2) | ++ (≤8 μg/mL) | – | ++ (≤8 μg/mL) | − (>32 μg/mL) | − (>32 μg/mL) | – | –
N=C(N)NCC/C=C(\NC(=O)[C@H](CCCCN)NC(=O)[C@H](Cc1cnc[nH]1)NC(=O)[C@@H]1CCCN1C(=O)[C@@H](CCCN)NC(=O)CNC(=O)[C@@H](NC(=O)[C@@H](NC(=O)[C@@H](N)CCCCN)[C@@H](O)CN)C1CCCC1)C(N)=O [220.1] (H-K[Dab(3S-OH)][Gly(cPent)]G[dOrn]PHK[ΔZArg]-NH2) | ++ (≤8 μg/mL) | – | + (≤32 μg/mL) | − (>32 μg/mL) | − (>32 μg/mL) | – | –
N=C(N)NCC/C=C(\NC(=O)[C@H](CCCCN)NC(=O)[C@H](Cc1cnc[nH]1)NC(=O)[C@@H]1CCCN1C(=O)[C@@H](CCCN)NC(=O)CNC(=O)[C@H](CN)NC(=O)[C@@H](NC(=O)[C@@H](N)CCCCN)[C@@H](O)CN)C(=O)O [221.1] (H-K[Dab(3S-OH)][Dap]G[dOrn]PHK[ΔZArg]-OH) | + (≤32 μg/mL) | – | − (>32 μg/mL) | − (>32 μg/mL) | − (>32 μg/mL) | – | –
N=C(N)NCC/C=C(\NC(=O)[C@H](CCCCN)NC(=O)[C@H](Cc1cnc[nH]1)NC(=O)[C@@H]1CCCN1C(=O)[C@@H](CCCN)NC(=O)CNC(=O)[C@H](CCC(N)=O)NC(=O)[C@@H](NC(=O)[C@@H](N)CCCCN)[C@@H](O)CN)C(N)=O [222.1] (H-K[Dab(3S-OH)]QG[dOrn]PHK[ΔZArg]-NH2) | + (≤32 μg/mL) | – | − (>32 μg/mL) | − (>32 μg/mL) | − (>32 μg/mL) | – | –
C#CC[C@H](NC(=O)[C@@H](NC(=O)[C@@H](N)CCCCN)[C@@H](O)CN)C(=O)NCC(=O)N[C@H](CCCN)C(=O)N1CCC[C@H]1C(=O)N[C@@H](Cc1cnc[nH]1)C(=O)N[C@@H](CCCCN)C(=O)N/C(=C\CCNC(=N)N)C(=O)O [223.1] (H-K[Dab(3S-OH)][Pra]G[dOrn]PHK[ΔZArg]-OH) | + (≤32 μg/mL) | – | + (≤32 μg/mL) | − (>32 μg/mL) | − (>32 μg/mL) | – | –
N=C(N)NCC/C=C(\NC(=O)[C@H](CCCCN)NC(=O)[C@H](Cc1c[nH]cn1)NC(=O)[C@@H]1CCCN1C(=O)[C@@H](CCCN)NC(=O)CNC(=O)[C@H](CCO)NC(=O)[C@@H](NC(=O)[C@@H](N)CCCCN)[C@@H](O)CN)C(=O)O [225.1] (H-K[Dab(3S-OH)][hSer]G[dOrn]PHK[ΔZArg]-OH) | + (≤32 μg/mL) | – | − (>32 μg/mL) | − (>32 μg/mL) | − (>32 μg/mL) | – | –
N=C(N)NCC/C=C(\NC(=O)[C@H](CCCCN)NC(=O)[C@H](Cc1c[nH]cn1)NC(=O)[C@@H]1CCCN1C(=O)[C@@H](CCCN)NC(=O)CNC(=O)[C@@H](NC(=O)[C@@H](NC(=O)[C@@H](N)CCCCN)[C@@H](O)CN)[C@@H](O)CN)C(=O)N[C@@H](CCCCN)C(=O)NCCCCN [Odilomycin C, reference compound] (H-K[Dab(3S-OH)][Dab(3S-OH)]G[dOrn]PHK[ΔZArg]K-{NH(CH2)4NH2}; N-terminus and C-terminus assumed) | – | < 30 nM | – | – | – | – | 9 nM
